Assay results published in the RepoRT retention time repository (doi:10.1038/s41586-021-03707-9).

Tests used:
[1] = RP, Waters ACQUITY UPLC HSS C18, 100 × 2.1 mm, 1.7 µm, 40 °C, 0.35 mL/min, estimated dead time 0.63 min; A: water + 0.1% formic acid; B: methanol + 0.1% formic acid; gradient (min/%B) 0/0.5 4/70 4.5/98 5.4/98; conditions: stereoisomer not certain
[2] = Waters ACQUITY UPLC BEH C18, 100 × 2.1 mm, 1.7 µm, 40 °C, 0.28 mL/min, estimated dead time 0.63 min; A: water + 6.5 mM ammonium hydroxide; B: methanol + 6.5 mM ammonium hydroxide; gradient (min/%B) 0/0.5 4/70 4.5/98 5.4/98; conditions: stereoisomer not certain

Row | Structure (SMILES) | LC retention time [1] | LC retention time [2]
1 | O=C(O)Cc1cnc[nH]1 | 0.825 min | 0.817 min
2 | NC(Cc1ccc([N+](=O)[O-])cc1)C(=O)O (stereo unspecified) | 2.5 min | 2.58 min
3 | CC(=O)c1ccc(O)cc1O | 4.09 min | 3.05 min
4 | CC(O)CC(=O)O (stereo unspecified) | 0.799 min | 0.804 min
5 | CNC(=C[N+](=O)[O-])NCCSCc1ccc(CN(C)C)o1 | 2.32 min | 4.28 min
6 | c1ccc2[nH]ccc2c1 | 4.7 min | 4.85 min
7 | CCC(C)(O)C(=O)O (stereo unspecified) | 2.87 min | 0.857 min
8 | Nc1ncnc2c1ncn2C1CC(O)C(COP(=O)(O)O)O1 (stereo unspecified) | 1.56 min | 1.31 min
9 | OCC1OCC(O)C(O)C1O (stereo unspecified) | 0.864 min | 0.865 min
10 | CCCCCC(=O)NCC(=O)O | 4.08 min | 3.29 min
11 | NC(=O)CCCCC1CCSS1 (stereo unspecified) | 4.6 min | 4.75 min
12 | CCCOC(=O)c1ccc(O)cc1 | 5.25 min | 5.27 min
13 | NC(=O)NCCCC(N)C(=O)O (stereo unspecified) | 0.766 min | 0.796 min
14 | NCCCC(=O)O | 0.761 min | 0.769 min
15 | Nc1ccnc(=O)[nH]1 | 0.783 min | 1 min
16 | CSCCC(NC=O)C(=O)O (stereo unspecified) | 2.78 min | 1.75 min
17 | Nc1ccn(C2OC(CO)C(O)C2O)c(=O)n1 (stereo unspecified) | 1.1 min | 1.49 min
18 | NCCc1c[nH]c2ccccc12 | 2.82 min | 3.67 min
19 | CCCCC(N)C(=O)O (stereo unspecified) | 1.96 min | 1.77 min
20 | O=c1ccn(C2CC(O)C(COP(=O)(O)O)O2)c(=O)[nH]1 (stereo unspecified) | 1.35 min | 0.813 min
21 | Nc1ccc(C(=O)O)cc1 | 2.41 min | 0.852 min
22 | NC(Cc1ccc(O)c(O)c1)C(=O)O (stereo unspecified) | 1.29 min | 1.1 min
23 | CC(C)=CCNc1ncnc2nc[nH]c12 | 3.94 min | 4.91 min
24 | Oc1ccc(C=Cc2cc(O)cc(O)c2)cc1 | 4.15 min | 4.23 min
25 | CC(NC(=O)Cc1c[nH]c2ccccc12)C(=O)O (stereo unspecified) | 4 min | 3.24 min
26 | NC(=O)CCC(NC(=O)Cc1ccccc1)C(=O)O (stereo unspecified) | 3.27 min | 2.69 min
27 | NC1(C(=O)O)CC1 | 0.779 min | 0.778 min
28 | O=Cc1ccc(O)cc1 | 3.39 min | 2.36 min
